# “Also recorded” adds a separate entry of the source. Like-named read-outs stand apart in the source and are kept apart here.
# Assays:
# AFDH [1] = format: biochemical, Anthracobia melaloma; details: for Relative activity (%): None = 100
# AFDH [2] = tested on: AFDH
# AFDH [3] = tested on: AFDH; remark: listed apart in the source
# [4] = substrate 100 μl, 24.75 μmol/ml
# [5] = substrate 120 μl, 29.69 μmol/ml
# [6] = substrate 150 μl, 37.12 μmol/ml
# [7] = substrate 170 μl, 42.07 μmol/ml
# [8] = substrate 200 μl, 49.49 μmol/ml
# [9] = substrate 250 μl, 61.86 μmol/ml
# [10] = substrate 300 μl, 74.24 μmol/ml
# [11] = substrate 100 μl, 12.79 μmol/ml
# [12] = substrate 130 μl, 16.63 μmol/ml
# [13] = substrate 160 μl, 20.46 μmol/ml
# [14] = substrate 180 μl, 23.02 μmol/ml
# [15] = substrate 200 μl, 25.58 μmol/ml
# [16] = substrate 230 μl, 29.42 μmol/ml
# [17] = substrate 260 μl, 33.25 μmol/ml
# [18] = substrate 300 μl, 38.37 μmol/ml
# [19] = substrate 400 μl, 51.16 μmol/ml
# [20] = substrate 450 μl, 57.56 μmol/ml
# [21] = substrate 480 μl, 61.39 μmol/ml
smiles,measurement,setting,value
[Ca+2].[Cl-].[Cl-] [CaCl2],concentration found to increase the activity with a factor of two,AFDH [1],10 mM
same,effect on AFDH activity,AFDH [1],increased
same,Activity units,AFDH [1]; effector 5 mM,1245.0 units
same,OD263,AFDH [1]; effector 5 mM,0.747
same,Activity units,AFDH [1]; effector 10 mM,1442.7 units
same,OD263,AFDH [1]; effector 10 mM,0.865
same,Activity units,AFDH [1]; effector 15 mM,1455.0 units
same,OD263,AFDH [1]; effector 15 mM,0.873
same,Activity units,AFDH [1]; effector 20 mM,1531.7 units
same,OD263,AFDH [1]; effector 20 mM,0.919
same,Activity units,AFDH [1]; effector 25 mM,1561.7 units
same,OD263,AFDH [1]; effector 25 mM,0.937
same,Activity units,AFDH [1]; effector 30 mM,1601.7 units
same,OD263,AFDH [1]; effector 30 mM,0.961
same,Activity units,AFDH [1]; effector 40 mM,1473.3 units
same,OD263,AFDH [1]; effector 40 mM,0.884
same,Activity units,AFDH [1]; effector 50 mM,1466.7 units
same,OD263,AFDH [1]; effector 50 mM,0.880
O=CC(=O)[C@@H](O)[C@H](O)[C@H](O)CO [D-glucosone],Km,"AFDH [2]; read-out: apparent Km (concentration that yielded half of the maximum activity), substrate D-glucosone, pH 6.7, 22 °C",27.6 mM
same,Activity units,"AFDH [2]; substrate 5 μl, 1.24 μmol/ml",33.33 units
same,OD265,"AFDH [2]; substrate 5 μl, 1.24 μmol/ml",0.050
same,Activity units,"AFDH [2]; substrate 10 μl, 2.47 μmol/ml",36.00 units
same,OD265,"AFDH [2]; substrate 10 μl, 2.47 μmol/ml",0.054
same,Activity units,"AFDH [2]; substrate 20 μl, 4.95 μmol/ml",57.33 units
same,OD265,"AFDH [2]; substrate 20 μl, 4.95 μmol/ml",0.086
same,Activity units,"AFDH [2]; substrate 30 μl, 7.42 μmol/ml",79.30 units
same,OD265,"AFDH [2]; substrate 30 μl, 7.42 μmol/ml",0.119
same,Activity units,"AFDH [2]; substrate 40 μl, 9.90 μmol/ml",101.33 units
same,OD265,"AFDH [2]; substrate 40 μl, 9.90 μmol/ml",0.152
same,Activity units,"AFDH [2]; substrate 50 μl, 12.37 μmol/ml",114.00 units
same,OD265,"AFDH [2]; substrate 50 μl, 12.37 μmol/ml",0.171
same,Activity units,"AFDH [2]; substrate 60 μl, 14.85 μmol/ml",140.67 units
same,OD265,"AFDH [2]; substrate 60 μl, 14.85 μmol/ml",0.211
same,Activity units,"AFDH [2]; substrate 70 μl, 17.32 μmol/ml",164.67 units
same,OD265,"AFDH [2]; substrate 70 μl, 17.32 μmol/ml",0.247
same,Activity units,"AFDH [2]; substrate 80 μl, 19.80 μmol/ml",180.67 units
same,OD265,"AFDH [2]; substrate 80 μl, 19.80 μmol/ml",0.271
same,Activity units,"AFDH [2]; substrate 90 μl, 22.27 μmol/ml",215.30 units
same,OD265,"AFDH [2]; substrate 90 μl, 22.27 μmol/ml",0.323
same,Activity units,AFDH [2]; [4],230.67 units
same,OD265,AFDH [2]; [4],0.346
same,Activity units,AFDH [2]; [5],262.67 units
same,OD265,AFDH [2]; [5],0.379
same,Activity units,AFDH [2]; [6],310.20 units
same,OD265,AFDH [2]; [6],0.394
same,Activity units,AFDH [2]; [7],352.62 units
same,OD265,AFDH [2]; [7],0.529
same,Activity units,AFDH [2]; [8],394.62 units
same,OD265,AFDH [2]; [8],0.592
same,Activity units,AFDH [2]; [9],407.33 units
same,OD265,AFDH [2]; [9],0.611
same,Activity units,AFDH [2]; [10],414.67 units
same,OD265,AFDH [2]; [10],0.622
same,Vmax,"AFDH [2]; substrate D-glucosone, pH 6.7, 22 °C",416 units
[Cl-].[Cl-].[Mg+2] [MgCl2],concentration found to increase the activity with a factor of two,AFDH [1],25 mM
same,effect on AFDH activity,AFDH [1],increased
same,Activity units,AFDH [1]; effector 5 mM,1053.3 units
same,OD263,AFDH [1]; effector 5 mM,0.632
same,Activity units,AFDH [1]; effector 10 mM,1228.3 units
same,OD263,AFDH [1]; effector 10 mM,0.737
same,Activity units,AFDH [1]; effector 15 mM,1255.0 units
same,OD263,AFDH [1]; effector 15 mM,0.753
same,Activity units,AFDH [1]; effector 20 mM,1295.0 units
same,OD263,AFDH [1]; effector 20 mM,0.777
same,Activity units,AFDH [1]; effector 25 mM,1316.7 units
same,OD263,AFDH [1]; effector 25 mM,0.790
same,Activity units,AFDH [1]; effector 30 mM,1291.7 units
same,OD263,AFDH [1]; effector 30 mM,0.775
same,Activity units,AFDH [1]; effector 40 mM,1243.3 units
same,OD263,AFDH [1]; effector 40 mM,0.746
same,Activity units,AFDH [1]; effector 50 mM,1186.7 units
same,OD263,AFDH [1]; effector 50 mM,0.712
O[C@@H](CS)[C@@H](O)CS [DTT],effect on AFDH activity,AFDH [1],inhibited
same,Relative activity (%),AFDH [1]; inhibitor 10 mM,57%
O=C(O)CN(CCN(CC(=O)O)CC(=O)O)CC(=O)O [EDTA],effect on AFDH activity,AFDH [1],inhibited
same,Relative activity (%),AFDH [1]; inhibitor 10 mM,59%
same,Relative activity (%),AFDH [1]; inhibitor 50 mM,16%
[Cl-].[Cl-].[Zn+2] [ZnCl2],effect on AFDH activity,AFDH [1],inhibited
same,Activity units,AFDH [1]; effector 5 mM,551.7 units
same,OD263,AFDH [1]; effector 5 mM,0.331
same,Activity units,AFDH [1]; effector 10 mM,435.0 units
same,OD263,AFDH [1]; effector 10 mM,0.261
same,Activity units,AFDH [1]; effector 15 mM,315.0 units
same,OD263,AFDH [1]; effector 15 mM,0.189
same,Activity units,AFDH [1]; effector 20 mM,241.7 units
same,OD263,AFDH [1]; effector 20 mM,0.145
same,Activity units,AFDH [1]; effector 25 mM,220.0 units
same,OD263,AFDH [1]; effector 25 mM,0.132
same,Activity units,AFDH [1]; effector 30 mM,201.7 units
same,OD263,AFDH [1]; effector 30 mM,0.121
same,Activity units,AFDH [1]; effector 40 mM,158.3 units
same,OD263,AFDH [1]; effector 40 mM,0.095
same,Activity units,AFDH [1]; effector 50 mM,135.0 units
same,OD263,AFDH [1]; effector 50 mM,0.081
same,Relative activity (%),AFDH [1]; inhibitor 10 mM,52.52%
[Cl-].[Na+] [NaCl],concentration found to increase the activity with a factor of two,AFDH [1],50 mM
same,Activity units,AFDH [1]; NaCl 0.05 M,1263.3 units
same,OD263,AFDH [1]; NaCl 0.05 M,0.758
same,Activity units,AFDH [1]; NaCl 0.1 M,1348.3 units
same,OD263,AFDH [1]; NaCl 0.1 M,0.809
same,Activity units,AFDH [1]; NaCl 0.15 M,1381.7 units
same,OD263,AFDH [1]; NaCl 0.15 M,0.829
same,Activity units,AFDH [1]; NaCl 0.2 M,1415.0 units
same,OD263,AFDH [1]; NaCl 0.2 M,0.849
same,Activity units,AFDH [1]; NaCl 0.3 M,1453.3 units
same,OD263,AFDH [1]; NaCl 0.3 M,0.872
same,Activity units,AFDH [1]; NaCl 0.4 M,1338.3 units
same,OD263,AFDH [1]; NaCl 0.4 M,0.803
same,Activity units,AFDH [1]; NaCl 0.5 M,1301.7 units
same,OD263,AFDH [1]; NaCl 0.5 M,0.781
same,Activity units,AFDH [1]; NaCl 0.6 M,1286.7 units
same,OD263,AFDH [1]; NaCl 0.6 M,0.772
same,Activity units,AFDH [1]; NaCl 0.7 M,1271.7 units
same,OD263,AFDH [1]; NaCl 0.7 M,0.763
same,Activity units,AFDH [1]; NaCl 0.8 M,1223.3 units
same,OD263,AFDH [1]; NaCl 0.8 M,0.734
same,Activity units,AFDH [1]; NaCl 0.9 M,1141.7 units
same,OD263,AFDH [1]; NaCl 0.9 M,0.685
same,effect on AFDH activity,AFDH [1]; listed as Na^+,increased; also recorded: positive effect
"O=C1CO[C@H](CO)[C@@H](O)[C@@H]1O [AF, 1,5-anhydro-D-fructose]",Km,"AFDH [3]; read-out: apparent Km (concentration that yielded half of the maximum activity), substrate AF, pH 6.7, 22 °C",12.6 mM
same,Activity units,"AFDH [3]; substrate 5 μl, 0.64 μmol/ml",39.33 units
same,OD263,"AFDH [3]; substrate 5 μl, 0.64 μmol/ml",0.059
same,Activity units,"AFDH [3]; substrate 10 μl, 1.28 μmol/ml",62.67 units
same,OD263,"AFDH [3]; substrate 10 μl, 1.28 μmol/ml",0.094
same,Activity units,"AFDH [3]; substrate 20 μl, 2.56 μmol/ml",101.33 units
same,OD263,"AFDH [3]; substrate 20 μl, 2.56 μmol/ml",0.152
same,Activity units,"AFDH [3]; substrate 30 μl, 3.84 μmol/ml",182.67 units
same,OD263,"AFDH [3]; substrate 30 μl, 3.84 μmol/ml",0.274
same,Activity units,"AFDH [3]; substrate 40 μl, 5.12 μmol/ml",210.67 units
same,OD263,"AFDH [3]; substrate 40 μl, 5.12 μmol/ml",0.316
same,Activity units,"AFDH [3]; substrate 50 μl, 6.40 μmol/ml",218.67 units
same,OD263,"AFDH [3]; substrate 50 μl, 6.40 μmol/ml",0.328
same,Activity units,"AFDH [3]; substrate 60 μl, 0.46 μmol/ml",256.00 units
same,OD263,"AFDH [3]; substrate 60 μl, 0.46 μmol/ml",0.384
same,Activity units,"AFDH [3]; substrate 70 μl, 8.95 μmol/ml",327.33 units
same,OD263,"AFDH [3]; substrate 70 μl, 8.95 μmol/ml",0.491
same,Activity units,AFDH [3]; [11],412.00 units
same,OD263,AFDH [3]; [11],0.618
same,Activity units,AFDH [3]; [12],456.67 units
same,OD263,AFDH [3]; [12],0.685
same,Activity units,AFDH [3]; [13],511.33 units
same,OD263,AFDH [3]; [13],0.767
same,Activity units,AFDH [3]; [14],549.33 units
same,OD263,AFDH [3]; [14],0.824
same,Activity units,AFDH [3]; [15],561.33 units
same,OD263,AFDH [3]; [15],0.842
same,Activity units,AFDH [3]; [16],594.67 units
same,OD263,AFDH [3]; [16],0.892
same,Activity units,AFDH [3]; [17],609.33 units
same,OD263,AFDH [3]; [17],0.914
same,Activity units,AFDH [3]; [18],646.67 units
same,OD263,AFDH [3]; [18],0.97
same,Activity units,AFDH [3]; [19],738.67 units
same,OD263,AFDH [3]; [19],1.108
same,Activity units,AFDH [3]; [20],767.33 units
same,OD263,AFDH [3]; [20],1.151
same,Activity units,AFDH [3]; [21],772.67 units
same,OD263,AFDH [3]; [21],1.159
same,Vmax,"AFDH [3]; substrate AF, pH 6.7, 22 °C",769 units

# Source: patent US20030170829A1 (priority 2001, published 2003)
